According to ChEMBL document CHEMBL1122054, “Lysosomotropic agents. 4. Carbobenzoxyglycylphenylalanyl, a new protease-sensitive masking group for introduction into cells” (J Med Chem, 1982):
Where a SMILES comes first, the peptide text is derived from it. The star is where a group is joined. Cbz = O=C(OCc1ccccc1)*

How the values were obtained:
Mus musculus [1] = species on record: Mus musculus; assay: Evaluated for the percent inhibition uptake of radiolabeled thymidine as a measure of inhibition of cell division against the SV40-transformed 3T3 cells after 4 hr at the concentration of 1x10E4M; type: functional, NIH3T3
Mus musculus [2] = species on record: Mus musculus; assay: Evaluated for the percent inhibition uptake of radiolabeled thymidine as a measure of inhibition of cell division against the SV40-transformed 3T3 cells after 4 hr at the concentration of 3x10E4M; type: functional, NIH3T3
Mus musculus [3] = species on record: Mus musculus; assay: Evaluated for the percent inhibition uptake of radiolabeled thymidine as a measure of inhibition of cell division against the SV40-transformed 3T3 cells after 4 hr at the concentration of 6; type: functional, NIH3T3
Mus musculus [4] = species on record: Mus musculus; assay: Toxicity toward P-815 Mastocytoma cells after 5 hr was determined as percent of [51Cr]- release from labeled cells as a measure of cell death. at a concentration of 0.257 mM. (expt III); type: functional
Mus musculus [5] = species on record: Mus musculus; assay: Toxicity was evaluated for the compound at a concentration of 0.257 mM against […] Mastocytoma.; type: functional
[6] = Compound in absence of MPM cell homogenate at pH 3 to isolate compound 4 (ng); type: ADME, cell-based
[7] = Compound in absence of MPM cell homogenate at pH 4.5 to isolate compound 4 (ng); type: ADME, cell-based
[8] = Compound in absence of MPM cell homogenate at pH 7 to isolate compound 4 (ng); type: ADME, cell-based
[9] = Compound treated with MPM cell homogenate at pH 4.5 to isolate compound 4 (ng); type: ADME, cell-based
Mus musculus [10] = species on record: Mus musculus; assay: Toxicity toward P-815 Mastocytoma cells after 5 hr was determined as percent of [51Cr]- release from labeled cells as a measure of cell death. at a concentration of 0.331 mM. (expt III); type: functional
Mus musculus [11] = species on record: Mus musculus; assay: Toxicity was evaluated for the compound at a concentration of 0.331 mM against […] Mastocytoma.; type: functional
MPM = assay: Compound in presence of MPM cells and in absence of inactivator at pH 8 to isolate compound 4 (ng); type: cell-based
Mus musculus [12] = species on record: Mus musculus; assay: Toxicity toward P-815 Mastocytoma cells after 5 hr was determined as percent of [51Cr]- release from labeled cells as a measure of cell death. at a concentration of 0.281 mM. (expt IV); type: functional

## CC(C)(C)OC(=O)NCC(=O)N[C@H](Cc1ccccc1)C(=O)N(CCCl)CCCl
Mus musculus [1]
  Inhibition uptake: -4%
Mus musculus [2]
  Inhibition uptake: 33%
Mus musculus [3]
  Inhibition uptake: 52%

## CCCCCCCCCCCCNC(=O)[C@H](Cc1ccccc1)NC(=O)CN
Mus musculus [4]
  Cr release: 93%
Mus musculus [5]
  Toxicity: 100 µg/mL

## CCCCCCCCCCCCN(CC(F)(F)F)C(=O)[C@H](Cc1ccccc1)NC(=O)CNC(=O)OCc1ccccc1
[6]
  Activity: 44
[7]
  Activity: 29
[8]
  Activity: 28
[9]
  Activity: < 20
Mus musculus [10]
  Cr release: 11%
Mus musculus [11]
  Toxicity: 200 µg/mL
MPM
  Activity: 20

## O=C(CNC(=O)OCc1ccccc1)N[C@@H](Cc1ccccc1)C(=O)O (Cbz-Gly-Phe-OH)
Mus musculus [12]
  Cr release: 16%
